Measured values from US20110021588A1, “SUBLINGUAL DEXMEDITOMIDINE COMPOSITIONS AND METHODS OF USE THEREOF” (RECRO PHARMA, INC., priority 2009, published 2011).
Like-named read-outs stand apart in the source and are kept apart here.

Legend:
[1] = human, cited from earlier work
[2] = human, cited from earlier work; remark: listed apart in the source
in vivo = conditions: male, Beagle, dog
Description: The purpose of the study was to assess the pharmacokinetics and absolute bioavailability of dexmedetomidine in a group of five Beagle dogs (males, each aged 5 to 8 months and weighing between 7.5 and 9.2 kg) following sublingual spray administration of the different formulations described in Tables 1 and 2.
For sublingual administration, a spray application was administered by one depression of a pump device into the oral cavity under the tongue. In order to ensure proper pump priming, two actuations were performed prior to dosing. Following dose administration, serial blood samples were collected form each subject animal by venipuncture of a jugular vein as follows: 0 (predose), 0.083, 0.167, 0.25, 0.33, 0.5, 1, 2, and 6 hours post-sublingual dose. […] Blood samples were collected in vacutainer tubes containing K2EDTA as anticoagulant, and derived plasma samples were stored frozen until analyzed.

Cc1cccc([C@H](C)c2cnc[nH]2)c1C [dexmedetomidine, 5-[(1S)-1-(2,3-dimethylphenyl)ethyl]-1H-imidazole]
absolute bioavailability ([1]; i.m. administration): 73% | time to maximum concentration in blood ([1]; i.m. administration): 1.6 to 1.7 h | mean elimination half-life ([1]; i.m. dosing): 3 h | mean elimination half-life ([1]; i.v. dosing): 1.5 h | absolute bioavailability ([1]; transdermal administration): 88% | mean elimination half-life ([1]; transdermal administration): 5.6 h | time to maximum concentration in blood ([1]; transdermal administration): 6 h | apparent elimination half-life ([2]; buccal): 1.9 h | time of maximum concentration ([2]; buccal): approximately 1.5 h | mean buccal bioavailability ([2]; solution held in mouth without swallowing): 81.8% | Cmax (in vivo): 0.914 ng/mL | Tmax (in vivo): 0.333 h
